# Measurements reported in paper PMC5383655, “Development of Automated Patch Clamp Technique to Investigate CFTR Chloride Channel Function” (Frontiers in Pharmacology, 2017).
# Biological target: T1, cystic fibrosis transmembrane conductance regulator (CFTR), wt (Homo sapiens, UniProt P13569)
# T1 construct: wt-CFTR stably expressed in BHK cells
# Assay: automated whole-cell patch clamp, acute potentiation of current activated by […] Fsk on addition of […] compound
# Assay type: cell-based
# T1 sequence (P13569 whole entry): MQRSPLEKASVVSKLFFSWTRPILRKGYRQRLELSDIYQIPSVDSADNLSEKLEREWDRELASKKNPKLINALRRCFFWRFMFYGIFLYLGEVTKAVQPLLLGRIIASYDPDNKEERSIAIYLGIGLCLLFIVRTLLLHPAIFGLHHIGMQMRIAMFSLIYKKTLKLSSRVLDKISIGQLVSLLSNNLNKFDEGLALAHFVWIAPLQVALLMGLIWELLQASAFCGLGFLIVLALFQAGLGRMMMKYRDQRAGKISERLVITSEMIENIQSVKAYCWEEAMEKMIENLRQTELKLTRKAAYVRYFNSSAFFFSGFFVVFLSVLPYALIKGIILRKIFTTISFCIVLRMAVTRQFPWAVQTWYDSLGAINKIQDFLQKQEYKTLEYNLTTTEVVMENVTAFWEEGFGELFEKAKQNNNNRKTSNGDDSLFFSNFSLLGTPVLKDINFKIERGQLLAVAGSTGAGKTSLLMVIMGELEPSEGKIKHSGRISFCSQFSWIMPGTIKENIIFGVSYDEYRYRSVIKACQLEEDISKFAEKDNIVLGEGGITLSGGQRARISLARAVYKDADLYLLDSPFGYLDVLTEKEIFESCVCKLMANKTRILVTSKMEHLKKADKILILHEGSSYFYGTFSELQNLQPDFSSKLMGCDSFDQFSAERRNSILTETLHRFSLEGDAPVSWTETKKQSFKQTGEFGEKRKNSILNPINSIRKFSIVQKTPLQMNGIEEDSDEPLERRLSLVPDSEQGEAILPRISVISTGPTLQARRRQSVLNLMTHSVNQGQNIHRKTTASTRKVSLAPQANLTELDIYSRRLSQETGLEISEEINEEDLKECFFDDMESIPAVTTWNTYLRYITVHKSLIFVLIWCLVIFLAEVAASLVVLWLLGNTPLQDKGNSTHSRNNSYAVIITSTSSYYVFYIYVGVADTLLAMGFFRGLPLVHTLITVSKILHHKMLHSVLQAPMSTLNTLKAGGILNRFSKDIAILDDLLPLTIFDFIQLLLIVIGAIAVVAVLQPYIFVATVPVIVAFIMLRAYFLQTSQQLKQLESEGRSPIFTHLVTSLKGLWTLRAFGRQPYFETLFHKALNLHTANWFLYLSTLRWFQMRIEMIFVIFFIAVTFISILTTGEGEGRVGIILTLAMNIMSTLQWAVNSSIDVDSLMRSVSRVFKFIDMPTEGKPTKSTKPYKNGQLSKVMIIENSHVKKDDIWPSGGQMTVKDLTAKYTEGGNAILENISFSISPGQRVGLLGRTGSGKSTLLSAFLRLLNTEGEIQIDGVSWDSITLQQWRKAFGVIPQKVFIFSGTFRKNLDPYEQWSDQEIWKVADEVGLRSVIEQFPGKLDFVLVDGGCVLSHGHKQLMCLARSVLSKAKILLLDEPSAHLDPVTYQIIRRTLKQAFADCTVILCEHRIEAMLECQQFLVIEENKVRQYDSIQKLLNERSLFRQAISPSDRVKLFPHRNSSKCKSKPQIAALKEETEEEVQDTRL
smiles,measurement,value
CC(C)(C)c1cc(C(C)(C)C)c(NC(=O)c2c[nH]c3ccccc3c2=O)cc1O [VX770],"automated whole-cell patch clamp, acute potentiation of current activated by 1 μ",clearly demonstrate potentiation of the Fsk-activated current by the potentiator VX770
